Measured values reported in US20020001582A1, “Methods and compositions for inhibiting microbial growth” (priority 1999, published 2002).

Legend:
Fusarium [1] = assay: Lysozyme against Fusarium, plug in PD broth; type: cell-based
Protocol: PD broth was prepared and autoclaved in dilution bottles (100 ml) and allowed to cool. Required amounts of lysozyme were added into the bottles and dissolved. […] A square of Fusarium (5-10 mm square “plug”) was cut and placed in/near the center of each dish. The plates were incubated at room temperature for 2 weeks. The trial was carried out in triplicate and was repeated three times.
The fungal growth was quantified by measuring the diameter of Fusarium growth and the coverage of the plates by the fungus. The measurements (given in mm) also include the size of the inoculum plug inserted into the plate of media. The color change and the change in the physical appearance (fuzzy, not fuzzy) were also monitored. The Fusarium growth is pink to dark pink. All the numbers shown are the averages of three replicates for each treatment. The diameter of the plate was approximately 85 mm.

Fusarium [2] = assay: Lysozyme against Fusarium inoculated from liquid broth; type: cell-based
Protocol: PD broth was prepared and autoclaved in dilution bottles (100 ml) and allowed to cool. Various amounts of lysozyme were added into the bottles and dissolved. […] One ml of Fusarium broth was transferred into each dish and the contents were mixed well. The plates were incubated at room temperature for 2 weeks. The trial was carried out in triplicate and was repeated three times. Pictures of the fungi were taken daily using a digital camera and the data was transferred on to the computer and processed.

## lysozyme: type c egg white lysozyme, enzyme of approximately 129 amino acids; commercially available from Canadian Inovatech, Inc.
Fusarium [1]; 250 ppm, broth turned yellow after 10 days
  Fusarium growth: quite limited
Fusarium [1]; Batch 1, 25 ppm, day 0 (inoculum plug)
  diameter of Fusarium growth: 9.3 mm
Fusarium [1]; Batch 1, 25 ppm, day 4
  growth, color and physical appearance: Confluent, pink
Fusarium [1]; Batch 1, 25 ppm, day 7
  growth, color and physical appearance: Confluent, dark
Fusarium [1]; Batch 1, 25 ppm, day 11
  growth, color and physical appearance: Confluent, dark
Fusarium [1]; Batch 1, 50 ppm, day 0 (inoculum plug)
  diameter of Fusarium growth: 9.7 mm
Fusarium [1]; Batch 1, 50 ppm, day 4
  growth, color and physical appearance: Confluent, pink
Fusarium [1]; Batch 1, 50 ppm, day 7
  growth, color and physical appearance: Confluent, dark
Fusarium [1]; Batch 1, 50 ppm, day 11
  growth, color and physical appearance: Confluent, dark
Fusarium [1]; Batch 1, 75 ppm, day 0 (inoculum plug)
  diameter of Fusarium growth: 8.3 mm
Fusarium [1]; Batch 1, 75 ppm, day 4
  coverage of the plates by the fungus: 36.7% covered
  diameter of Fusarium growth: 23.7 mm
Fusarium [1]; Batch 1, 75 ppm, day 7
  coverage of the plates by the fungus: 60% covered
  diameter of Fusarium growth: 27.0 mm
Fusarium [1]; Batch 1, 75 ppm, day 11
  growth, color and physical appearance: Confluent, dark
Fusarium [1]; Batch 1, 100 ppm, day 0 (inoculum plug)
  diameter of Fusarium growth: 8.0 mm
Fusarium [1]; Batch 1, 100 ppm, day 4
  coverage of the plates by the fungus: 26.7% covered
  diameter of Fusarium growth: 23.7 mm
Fusarium [1]; Batch 1, 100 ppm, day 7
  coverage of the plates by the fungus: 46.7% covered
  diameter of Fusarium growth: 28.3 mm
Fusarium [1]; Batch 1, 100 ppm, day 11
  coverage of the plates by the fungus: 80% covered
  growth, color and physical appearance: Dark pink
Fusarium [1]; Batch 1, 250 ppm, day 0 (inoculum plug)
  diameter of Fusarium growth: 8.7 mm
Fusarium [1]; Batch 1, 250 ppm, day 4
  diameter of Fusarium growth: 16.0 mm
Fusarium [1]; Batch 1, 250 ppm, day 7
  diameter of Fusarium growth: 22.0 mm
Fusarium [1]; Batch 1, 250 ppm, day 11
  coverage of the plates by the fungus: 29.7% covered
  growth, color and physical appearance: Yellow broth
Fusarium [1]; Batch 2, 25 ppm, day 0 (inoculum plug)
  diameter of Fusarium growth: 7.8 mm
Fusarium [1]; Batch 2, 25 ppm, day 4
  coverage of the plates by the fungus: 76.7%
  growth, color and physical appearance: dark peach
Fusarium [1]; Batch 2, 25 ppm, day 6
  coverage of the plates by the fungus: 88.3%
  growth, color and physical appearance: pink
Fusarium [1]; Batch 2, 25 ppm, day 8
  coverage of the plates by the fungus: 91.7%
  growth, color and physical appearance: dark pink
Fusarium [1]; Batch 2, 25 ppm, day 11
  coverage of the plates by the fungus: 91.7%
  growth, color and physical appearance: dark pink
Fusarium [1]; Batch 2, 25 ppm, day 14
  coverage of the plates by the fungus: 91.7%
  growth, color and physical appearance: dark pink,
Fusarium [1]; Batch 2, 50 ppm, day 0 (inoculum plug)
  diameter of Fusarium growth: 7.5 mm
Fusarium [1]; Batch 2, 50 ppm, day 4
  coverage of the plates by the fungus: 43.3%
  growth, color and physical appearance: peach
Fusarium [1]; Batch 2, 50 ppm, day 6
  coverage of the plates by the fungus: 60%
  growth, color and physical appearance: pink
Fusarium [1]; Batch 2, 50 ppm, day 8
  coverage of the plates by the fungus: 61.7%
  growth, color and physical appearance: dark pink
Fusarium [1]; Batch 2, 50 ppm, day 11
  coverage of the plates by the fungus: 68.3%
  growth, color and physical appearance: dark pink
Fusarium [1]; Batch 2, 50 ppm, day 14
  coverage of the plates by the fungus: 55.0%
  growth, color and physical appearance: dark pink,
Fusarium [1]; Batch 2, 75 ppm, day 0 (inoculum plug)
  diameter of Fusarium growth: 8.0 mm
Fusarium [1]; Batch 2, 75 ppm, day 4
  coverage of the plates by the fungus: 13.3%
  diameter of Fusarium growth: 21.3 mm
  growth, color and physical appearance: peach
Fusarium [1]; Batch 2, 75 ppm, day 6
  coverage of the plates by the fungus: 40%
  growth, color and physical appearance: pink
Fusarium [1]; Batch 2, 75 ppm, day 8
  coverage of the plates by the fungus: 46.7%
  growth, color and physical appearance: pink
Fusarium [1]; Batch 2, 75 ppm, day 11
  coverage of the plates by the fungus: 61.7%
  growth, color and physical appearance: dark pink
Fusarium [1]; Batch 2, 75 ppm, day 14
  coverage of the plates by the fungus: 68.3%
  growth, color and physical appearance: dark pink,
Fusarium [1]; Batch 2, 100 ppm, day 0 (inoculum plug)
  diameter of Fusarium growth: 7.8 mm
Fusarium [1]; Batch 2, 100 ppm, day 4
  diameter of Fusarium growth: 22.3 mm
  growth, color and physical appearance: peach
Fusarium [1]; Batch 2, 100 ppm, day 6
  diameter of Fusarium growth: 20.0 mm
  growth, color and physical appearance: light peach
Fusarium [1]; Batch 2, 100 ppm, day 8
  coverage of the plates by the fungus: 30.3%
  growth, color and physical appearance: pink
Fusarium [1]; Batch 2, 100 ppm, day 11
  diameter of Fusarium growth: 37 mm
  growth, color and physical appearance: pink/yellow
Fusarium [1]; Batch 2, 100 ppm, day 14
  diameter of Fusarium growth: 42.7 mm
  growth, color and physical appearance: pink, fuzzy
Fusarium [1]; Batch 2, 250 ppm, day 0 (inoculum plug)
  diameter of Fusarium growth: 7.3 mm
Fusarium [1]; Batch 2, 250 ppm, day 4
  diameter of Fusarium growth: 17.0 mm
  growth, color and physical appearance: light peach
Fusarium [1]; Batch 2, 250 ppm, day 6
  diameter of Fusarium growth: 19.7 mm
  growth, color and physical appearance: very light
Fusarium [1]; Batch 2, 250 ppm, day 8
  diameter of Fusarium growth: 22 mm
  growth, color and physical appearance: dark peach
Fusarium [1]; Batch 2, 250 ppm, day 11
  diameter of Fusarium growth: 25.7 mm
  growth, color and physical appearance: yellow broth
Fusarium [1]; Batch 2, 250 ppm, day 14
  diameter of Fusarium growth: 35.0 mm
  growth, color and physical appearance: pink, fuzzy
Fusarium [1]; Batch 3, 25 ppm, day 0 (inoculum plug)
  diameter of Fusarium growth: 8.2 mm
Fusarium [1]; Batch 3, 25 ppm, day 4
  coverage of the plates by the fungus: 25% covered
  diameter of Fusarium growth: 26.3 mm
  growth, color and physical appearance: peach
Fusarium [1]; Batch 3, 25 ppm, day 7
  coverage of the plates by the fungus: 33.3% covered
  diameter of Fusarium growth: 24.7 mm
  growth, color and physical appearance: pink, fuzzy
Fusarium [1]; Batch 3, 25 ppm, day 11
  coverage of the plates by the fungus: 38.3%
  diameter of Fusarium growth: 31.3 mm
  growth, color and physical appearance: pink, fuzzy
Fusarium [1]; Batch 3, 25 ppm, day 14
  coverage of the plates by the fungus: 45.0% covered,
  diameter of Fusarium growth: 32.0 mm
  growth, color and physical appearance: pink, fuzzy
Fusarium [1]; Batch 3, 50 ppm, day 0 (inoculum plug)
  diameter of Fusarium growth: 7.5 mm
Fusarium [1]; Batch 3, 50 ppm, day 4
  coverage of the plates by the fungus: 28.3% covered
  diameter of Fusarium growth: 22.7 mm
  growth, color and physical appearance: peach
Fusarium [1]; Batch 3, 50 ppm, day 7
  coverage of the plates by the fungus: 41.7% covered
  diameter of Fusarium growth: 25.7 mm
  growth, color and physical appearance: pink, fuzzy
Fusarium [1]; Batch 3, 50 ppm, day 11
  coverage of the plates by the fungus: 41.7%
  diameter of Fusarium growth: 28.0 mm
  growth, color and physical appearance: pink, fuzzy
Fusarium [1]; Batch 3, 50 ppm, day 14
  coverage of the plates by the fungus: 48.3% covered,
  diameter of Fusarium growth: 29.3 mm
  growth, color and physical appearance: pink, fuzzy
Fusarium [1]; Batch 3, 75 ppm, day 0 (inoculum plug)
  diameter of Fusarium growth: 8.2 mm
Fusarium [1]; Batch 3, 75 ppm, day 4
  diameter of Fusarium growth: 25.2 mm
  growth, color and physical appearance: peach
Fusarium [1]; Batch 3, 75 ppm, day 7
  diameter of Fusarium growth: 32.7 mm
  growth, color and physical appearance: pink, fuzzy
Fusarium [1]; Batch 3, 75 ppm, day 11
  diameter of Fusarium growth: 41.0 mm
  growth, color and physical appearance: pink, fuzzy
Fusarium [1]; Batch 3, 75 ppm, day 14
  coverage of the plates by the fungus: 38.1% covered,
  diameter of Fusarium growth: 43.7 mm
  growth, color and physical appearance: pink, fuzzy
Fusarium [1]; Batch 3, 100 ppm, day 0 (inoculum plug)
  diameter of Fusarium growth: 8.7 mm
Fusarium [1]; Batch 3, 100 ppm, day 4
  diameter of Fusarium growth: 21.7 mm
  growth, color and physical appearance: peach
Fusarium [1]; Batch 3, 100 ppm, day 7
  diameter of Fusarium growth: 25.0 mm
  growth, color and physical appearance: pink, fuzzy
Fusarium [1]; Batch 3, 100 ppm, day 11
  diameter of Fusarium growth: 26.0 mm
  growth, color and physical appearance: pink, fuzzy
Fusarium [1]; Batch 3, 100 ppm, day 14
  coverage of the plates by the fungus: 34.9% covered,
  diameter of Fusarium growth: 26.7 mm
  growth, color and physical appearance: pink, fuzzy
Fusarium [1]; Batch 3, 250 ppm, day 0 (inoculum plug)
  diameter of Fusarium growth: 7.3 mm
Fusarium [1]; Batch 3, 250 ppm, day 4
  diameter of Fusarium growth: 12.2 mm
  growth, color and physical appearance: yellow
Fusarium [1]; Batch 3, 250 ppm, day 7
  diameter of Fusarium growth: 20 mm
  growth, color and physical appearance: peach, fuzzy
Fusarium [1]; Batch 3, 250 ppm, day 11
  diameter of Fusarium growth: 29.7 mm
Fusarium [1]; Batch 3, 250 ppm, day 14
  diameter of Fusarium growth: 38.7 mm
  growth, color and physical appearance: peach with yellow
Fusarium [1]; concentrations lower than 250 ppm, not as effective
  inhibition of Fusarium: some inhibition
Fusarium [2]; 100 ppm or lower
  inhibition against Fusarium: not very effective
Fusarium [2]; 250 ppm
  inhibition against Fusarium: very good inhibition
  time for which growth of Fusarium is limited: two weeks
